Where “and” joins values, the source holds several entries; their conditions need not be identical. Equal entries are not always repeated.
What was measured:
[1] = Multispecies hepatocyte MetID; type: in vitro ADME, dog; settings: 4 h incubation with hepatocytes, 10 μM
Protocol: (§1) Metabolites were identified after preincubating each compound at a 10 μM final concentration with 2.5 × 10^5 hepatocytes from human, dog, cynomolgus monkey, and rat in 200 μL of Optiincubate buffer (BioIVT, Westbury, NY). […] After centrifugation, 60 μL of the supernatant was transferred to 60 μL of water for LC-MS analysis. Samples were analyzed using a Thermo Scientific Vanquish UHPLC consisting of a VH-P10-A pump, a VH-A10-A sampler module, a VH-C10-A column compartment, and the VF-D11-A UV detector coupled to an Orbitrap Fusion Lumos instrument with UVPD. A binary solvent system consisting of (A) water with 0.1% formic acid and (B) acetonitrile with 0.1% formic acid was used with an Accucore Vanquish C18+, 2.1 mm × 100 mm, 1.5 μm, UHPLC column maintained at 40 °C. The data generated by data-dependent acquisition via normal acquisition and AcquireX were processed manually with Thermo Scientific FreeStyle and assisted by Compound Discoverer 3.3.1.111 to aid in the structural assignments.

Bradykinin B2 = Bradykinin B2 (Homo sapiens, UniProt P30411); experiment: LeadProfilingScreen radioligand binding
[2] = test system: Calcium Channel L-Type, Dihydropyridine; experiment: LeadProfilingScreen radioligand binding; parameters: species or system rat
[3] = biological target: Epidermal Growth Factor (EGF) (Homo sapiens, UniProt P00533); experiment: LeadProfilingScreen radioligand binding
[4] = biological target: Leukotriene, Cysteinyl CysLT1 (Homo sapiens, UniProt Q9Y271); experiment: LeadProfilingScreen radioligand binding
hERG potassium channel = hERG potassium channel (Homo sapiens, UniProt Q12809); experiment: LeadProfilingScreen radioligand binding; settings: probe [3H]Dofetilide
Estrogen Erα = Estrogen Erα (Homo sapiens, UniProt P03372); experiment: LeadProfilingScreen radioligand binding
[5] = biological target: Serotonin (5-Hydroxytryptamine) 5-HT3 (Homo sapiens, UniProt P46098); experiment: LeadProfilingScreen radioligand binding
Sequence of Serotonin (5-Hydroxytryptamine) 5-HT3 (P46098 24-478): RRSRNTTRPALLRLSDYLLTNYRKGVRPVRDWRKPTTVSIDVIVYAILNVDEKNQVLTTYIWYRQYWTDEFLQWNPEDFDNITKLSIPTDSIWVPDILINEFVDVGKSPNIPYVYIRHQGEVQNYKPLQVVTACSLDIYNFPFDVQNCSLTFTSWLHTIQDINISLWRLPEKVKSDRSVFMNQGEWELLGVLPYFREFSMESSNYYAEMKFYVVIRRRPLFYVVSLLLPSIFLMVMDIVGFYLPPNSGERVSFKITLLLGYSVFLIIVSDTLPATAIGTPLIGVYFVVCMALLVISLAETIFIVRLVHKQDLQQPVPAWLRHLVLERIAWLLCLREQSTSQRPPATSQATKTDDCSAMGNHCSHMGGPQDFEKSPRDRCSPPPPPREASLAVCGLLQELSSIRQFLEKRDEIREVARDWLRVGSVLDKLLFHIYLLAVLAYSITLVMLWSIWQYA

Dopamine D3 = Dopamine D3 (Homo sapiens, UniProt P35462); experiment: LeadProfilingScreen radioligand binding
Sequence of Dopamine D3 (P35462 whole entry): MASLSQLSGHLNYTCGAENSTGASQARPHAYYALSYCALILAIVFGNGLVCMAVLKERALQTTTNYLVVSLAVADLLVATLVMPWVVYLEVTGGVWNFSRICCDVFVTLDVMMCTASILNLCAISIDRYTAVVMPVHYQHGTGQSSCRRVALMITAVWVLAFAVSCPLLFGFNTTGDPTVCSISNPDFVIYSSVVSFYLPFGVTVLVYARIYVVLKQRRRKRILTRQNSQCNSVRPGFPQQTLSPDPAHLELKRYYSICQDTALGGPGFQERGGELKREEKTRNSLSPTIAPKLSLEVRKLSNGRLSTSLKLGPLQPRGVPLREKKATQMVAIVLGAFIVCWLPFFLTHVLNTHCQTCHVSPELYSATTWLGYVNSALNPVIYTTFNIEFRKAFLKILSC

Glutamate, Kainate = experiment: LeadProfilingScreen radioligand binding; parameters: species or system rat
[6] = Multispecies hepatocyte MetID; type: in vitro ADME, rat; settings: 4 h incubation with hepatocytes, 10 μM
Protocol: as §1

Adrenergic α1D = Adrenergic α1D (Homo sapiens, UniProt P25100); experiment: LeadProfilingScreen radioligand binding
Opiate κ (OP2, KOP) = Opiate κ (OP2, KOP) (Homo sapiens, UniProt P41145); experiment: LeadProfilingScreen radioligand binding
CYP2C9 = CYP2C9 (Homo sapiens, UniProt P11712); experiment: CYP450 inhibition; type: in vitro ADME; settings: read-out: CYP450 Inhibition, 2C9
Glutamate, NMDA, Glycine = Glutamate, NMDA, Glycine (Rattus norvegicus, UniProt P35439); experiment: LeadProfilingScreen radioligand binding
[7] = biological target: Transporter, Dopamine (DAT) (Homo sapiens, UniProt Q01959); experiment: LeadProfilingScreen radioligand binding
Sequence of Transporter, Dopamine (DAT) (Q01959 whole entry): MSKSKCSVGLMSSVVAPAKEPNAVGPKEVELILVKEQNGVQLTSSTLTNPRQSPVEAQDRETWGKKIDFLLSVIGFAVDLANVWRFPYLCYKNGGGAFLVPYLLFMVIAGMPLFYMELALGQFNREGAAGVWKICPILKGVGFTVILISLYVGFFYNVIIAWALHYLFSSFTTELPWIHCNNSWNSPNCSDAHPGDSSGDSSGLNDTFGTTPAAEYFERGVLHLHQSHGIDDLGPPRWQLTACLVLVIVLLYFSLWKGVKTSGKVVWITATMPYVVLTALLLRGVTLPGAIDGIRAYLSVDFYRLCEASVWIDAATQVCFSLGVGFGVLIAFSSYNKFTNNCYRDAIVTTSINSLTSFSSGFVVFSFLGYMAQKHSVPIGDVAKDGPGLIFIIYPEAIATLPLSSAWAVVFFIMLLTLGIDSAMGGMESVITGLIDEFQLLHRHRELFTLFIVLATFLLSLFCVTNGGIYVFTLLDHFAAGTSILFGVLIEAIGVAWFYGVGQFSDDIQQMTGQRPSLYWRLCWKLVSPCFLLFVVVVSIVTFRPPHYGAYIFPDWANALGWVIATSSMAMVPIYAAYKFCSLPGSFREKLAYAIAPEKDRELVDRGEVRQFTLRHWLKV

[8] = biological target: Nicotinic Acetylcholine α3β4 (Homo sapiens, UniProt P30926+P32297); experiment: LeadProfilingScreen radioligand binding
Cannabinoid CB1 = Cannabinoid CB1 (Homo sapiens, UniProt P21554); experiment: LeadProfilingScreen radioligand binding
Adrenergic α1B = Adrenergic α1B (Homo sapiens, UniProt P35368); experiment: LeadProfilingScreen radioligand binding
Bradykinin B1 = Bradykinin B1 (Homo sapiens, UniProt P46663); experiment: LeadProfilingScreen radioligand binding
Sequence of Bradykinin B1 (P46663 whole entry): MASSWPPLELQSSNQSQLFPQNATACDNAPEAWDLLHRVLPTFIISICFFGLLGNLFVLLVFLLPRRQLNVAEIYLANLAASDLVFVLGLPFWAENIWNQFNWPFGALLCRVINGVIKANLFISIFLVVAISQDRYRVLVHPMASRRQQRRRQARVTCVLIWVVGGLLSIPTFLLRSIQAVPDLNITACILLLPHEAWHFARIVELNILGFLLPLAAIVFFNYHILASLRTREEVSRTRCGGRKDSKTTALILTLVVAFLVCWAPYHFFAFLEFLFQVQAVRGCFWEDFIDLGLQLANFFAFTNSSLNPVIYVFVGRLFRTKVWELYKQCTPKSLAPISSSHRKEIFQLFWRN

[9] = Multispecies hepatocyte MetID; type: in vitro ADME, minipig; settings: 4 h incubation with hepatocytes, 10 μM
[10] = biological target: Nicotinic Acetylcholine α1, Bungarotoxin (Homo sapiens, UniProt P02708+P07510+Q07001); experiment: biochemical; type: binding; settings: read-out: % inhibition at 10 μM
Sequence of Nicotinic Acetylcholine α1, Bungarotoxin (P02708 21-457): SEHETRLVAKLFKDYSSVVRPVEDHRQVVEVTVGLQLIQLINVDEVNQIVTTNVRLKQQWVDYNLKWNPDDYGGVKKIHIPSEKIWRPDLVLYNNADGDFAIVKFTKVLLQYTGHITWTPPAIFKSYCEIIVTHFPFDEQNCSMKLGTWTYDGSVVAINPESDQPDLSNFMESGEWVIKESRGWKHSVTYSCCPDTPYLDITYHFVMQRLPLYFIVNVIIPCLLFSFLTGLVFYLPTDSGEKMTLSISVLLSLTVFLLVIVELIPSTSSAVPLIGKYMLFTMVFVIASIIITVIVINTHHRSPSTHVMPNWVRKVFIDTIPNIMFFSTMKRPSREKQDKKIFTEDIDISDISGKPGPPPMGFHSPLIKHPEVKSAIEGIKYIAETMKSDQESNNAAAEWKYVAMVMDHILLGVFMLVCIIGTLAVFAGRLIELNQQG
Sequence of Nicotinic Acetylcholine α1, Bungarotoxin (P07510 23-517): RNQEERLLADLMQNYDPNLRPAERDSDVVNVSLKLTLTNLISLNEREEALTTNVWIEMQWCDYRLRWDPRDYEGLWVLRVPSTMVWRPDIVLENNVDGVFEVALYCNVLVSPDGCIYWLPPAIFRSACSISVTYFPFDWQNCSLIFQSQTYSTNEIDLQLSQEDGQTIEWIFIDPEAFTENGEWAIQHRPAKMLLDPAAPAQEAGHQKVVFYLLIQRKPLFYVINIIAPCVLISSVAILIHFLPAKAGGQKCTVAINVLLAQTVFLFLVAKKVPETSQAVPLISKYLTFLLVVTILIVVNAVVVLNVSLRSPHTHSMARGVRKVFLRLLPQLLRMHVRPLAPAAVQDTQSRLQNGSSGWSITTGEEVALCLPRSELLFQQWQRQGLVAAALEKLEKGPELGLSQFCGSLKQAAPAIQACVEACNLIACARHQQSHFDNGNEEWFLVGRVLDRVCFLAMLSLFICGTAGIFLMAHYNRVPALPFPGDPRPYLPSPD
Sequence of Nicotinic Acetylcholine α1, Bungarotoxin (Q07001 22-517): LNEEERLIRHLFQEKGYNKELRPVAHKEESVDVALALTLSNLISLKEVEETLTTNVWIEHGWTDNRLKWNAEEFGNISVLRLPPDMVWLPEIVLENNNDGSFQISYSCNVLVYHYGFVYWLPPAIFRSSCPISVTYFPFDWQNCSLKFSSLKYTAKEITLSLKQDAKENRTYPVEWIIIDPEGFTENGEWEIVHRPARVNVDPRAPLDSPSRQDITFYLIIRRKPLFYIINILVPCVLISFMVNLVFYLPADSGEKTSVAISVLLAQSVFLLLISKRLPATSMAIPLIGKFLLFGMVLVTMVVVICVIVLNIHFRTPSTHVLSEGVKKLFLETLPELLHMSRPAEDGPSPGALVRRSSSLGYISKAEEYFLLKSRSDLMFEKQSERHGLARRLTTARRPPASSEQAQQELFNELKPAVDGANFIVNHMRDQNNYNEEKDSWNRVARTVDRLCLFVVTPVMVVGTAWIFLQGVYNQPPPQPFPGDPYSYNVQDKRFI
Sequence of Nicotinic Acetylcholine α1, Bungarotoxin (P11230 24-501, further chain): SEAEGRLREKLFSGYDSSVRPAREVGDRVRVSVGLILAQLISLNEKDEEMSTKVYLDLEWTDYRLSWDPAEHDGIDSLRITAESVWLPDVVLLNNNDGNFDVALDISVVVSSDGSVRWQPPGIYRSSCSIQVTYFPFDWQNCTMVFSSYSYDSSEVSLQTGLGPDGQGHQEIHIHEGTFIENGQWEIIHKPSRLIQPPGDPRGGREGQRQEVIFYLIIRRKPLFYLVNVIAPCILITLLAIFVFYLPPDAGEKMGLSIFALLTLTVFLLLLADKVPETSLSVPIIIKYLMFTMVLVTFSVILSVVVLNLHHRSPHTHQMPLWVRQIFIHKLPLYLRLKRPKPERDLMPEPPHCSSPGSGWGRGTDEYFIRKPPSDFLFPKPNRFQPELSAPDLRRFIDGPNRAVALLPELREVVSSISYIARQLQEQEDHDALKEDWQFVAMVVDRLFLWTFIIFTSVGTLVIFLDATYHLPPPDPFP

Glucocorticoid = Glucocorticoid (Homo sapiens, UniProt P04150); experiment: LeadProfilingScreen radioligand binding
Sequence of Glucocorticoid (P04150 whole entry): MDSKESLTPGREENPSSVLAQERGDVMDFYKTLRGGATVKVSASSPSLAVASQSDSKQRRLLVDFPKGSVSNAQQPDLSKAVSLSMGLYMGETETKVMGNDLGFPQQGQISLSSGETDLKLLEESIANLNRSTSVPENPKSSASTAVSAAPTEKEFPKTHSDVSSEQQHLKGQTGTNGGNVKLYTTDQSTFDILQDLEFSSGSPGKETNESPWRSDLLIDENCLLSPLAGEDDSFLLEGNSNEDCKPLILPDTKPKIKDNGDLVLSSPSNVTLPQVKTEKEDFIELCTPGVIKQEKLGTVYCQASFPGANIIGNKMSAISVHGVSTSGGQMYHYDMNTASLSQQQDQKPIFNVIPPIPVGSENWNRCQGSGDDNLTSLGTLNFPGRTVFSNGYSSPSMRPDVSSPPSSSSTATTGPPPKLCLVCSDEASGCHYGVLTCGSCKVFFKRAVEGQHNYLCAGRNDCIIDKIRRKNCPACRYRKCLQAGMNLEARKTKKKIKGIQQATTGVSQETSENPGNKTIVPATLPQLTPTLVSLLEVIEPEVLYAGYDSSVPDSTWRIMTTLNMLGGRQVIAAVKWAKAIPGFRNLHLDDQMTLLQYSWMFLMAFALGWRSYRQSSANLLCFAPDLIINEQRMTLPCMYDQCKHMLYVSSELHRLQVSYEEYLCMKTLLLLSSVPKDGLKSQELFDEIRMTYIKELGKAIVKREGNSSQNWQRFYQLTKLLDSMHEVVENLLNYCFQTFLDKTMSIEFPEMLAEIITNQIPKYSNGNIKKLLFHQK

Opiate δ1 (OP1, DOP) = Opiate δ1 (OP1, DOP) (Homo sapiens, UniProt P41143); experiment: LeadProfilingScreen radioligand binding
Sequence of Opiate δ1 (OP1, DOP) (P41143 whole entry): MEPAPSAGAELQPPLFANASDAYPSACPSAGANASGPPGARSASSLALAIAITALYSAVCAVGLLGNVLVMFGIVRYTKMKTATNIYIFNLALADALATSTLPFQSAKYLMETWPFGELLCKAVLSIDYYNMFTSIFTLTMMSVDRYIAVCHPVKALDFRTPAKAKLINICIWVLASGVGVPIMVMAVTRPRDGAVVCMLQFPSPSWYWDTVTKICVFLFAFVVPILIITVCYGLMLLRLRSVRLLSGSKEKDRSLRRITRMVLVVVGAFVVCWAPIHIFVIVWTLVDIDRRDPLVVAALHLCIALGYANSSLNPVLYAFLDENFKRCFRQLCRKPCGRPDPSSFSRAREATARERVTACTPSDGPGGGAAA

Histamine H2 = Histamine H2 (Homo sapiens, UniProt P25021); experiment: LeadProfilingScreen radioligand binding
Melatonin MT1 = Melatonin MT1 (Homo sapiens, UniProt P48039); experiment: LeadProfilingScreen radioligand binding
[11] = test system: Purinergic P2Y, Non-Selective; experiment: LeadProfilingScreen radioligand binding; parameters: species or system rat
Muscarinic M3 = Muscarinic M3 (Homo sapiens, UniProt P20309); experiment: LeadProfilingScreen radioligand binding
[12] = biological target: Platelet Activating Factor (PAF) (Homo sapiens, UniProt P25105); experiment: LeadProfilingScreen radioligand binding
CYP1A2 = CYP1A2 (Homo sapiens, UniProt P05177); experiment: CYP450 inhibition; type: in vitro ADME; settings: read-out: CYP450 Inhibition, 1A2
Opiate μ (OP3, MOP) = Opiate μ (OP3, MOP) (Homo sapiens, UniProt P35372); experiment: LeadProfilingScreen radioligand binding

Structure (SMILES) | % of Parent Related Material, Dog [1] | inhibition at 10 µM (Bradykinin B2) [%] | % inhibition at 10 μM [2] [%] | inhibition at 10 µM [3] [%] | inhibition at 10 µM [4] [%] | inhibition at 10 µM (hERG potassium channel) [%] | inhibition at 10 µM (Estrogen Erα) [%] | inhibition at 10 µM [5] [%] | inhibition at 10 µM (Dopamine D3) [%] | % inhibition at 10 μM (Glutamate, Kainate) [%] | % of Parent Related Material, Rat [6] | inhibition at 10 µM (Adrenergic α1D) [%] | inhibition at 10 µM (Opiate κ (OP2, KOP)) [%] | IC50 (CYP2C9) [µM] | inhibition at 10 µM (Glutamate, NMDA, Glycine) [%] | inhibition at 10 µM [7] [%] | inhibition at 10 µM [8] [%] | inhibition at 10 µM (Cannabinoid CB1) [%] | inhibition at 10 µM (Adrenergic α1B) [%] | inhibition at 10 µM (Bradykinin B1) [%] | other results
O=C(c1ccc(OCc2ccc(OC(F)(F)F)cc2)cc1)N1CCN(c2ccc(C(F)(F)F)cn2)CC1 [VU6032735] | > 98% | -1 | 76 | 5 | -3 | 9 | 11 | -11 | 3 | -4 | > 98% | 2 | -16 | > 30 | -3 | 26 | -6 | 32 | -5 | 4 | % of Parent Related Material, Pig [9]: > 98%; inhibition at 10 µM [10]: 2%; inhibition at 10 µM (Glucocorticoid): 10%; inhibition at 10 µM (Opiate δ1 (OP1, DOP)): 7%; inhibition at 10 µM (Histamine H2): 6%; inhibition at 10 µM (Melatonin MT1): 8%; % inhibition at 10 μM [11]: 24%; inhibition at 10 µM (Muscarinic M3): 7%; inhibition at 10 µM [12]: -2%; IC50 (CYP1A2): > 30 µM; inhibition at 10 µM (Opiate μ (OP3, MOP)): 11%
Cc1cc(Cl)cc2sc(O[C@H]3CCN(C(=O)CCCS(=O)(=O)c4cccc(Br)c4)C[C@H]3F)nc12 [VU6047606] | 93.78% and > 82% | 4 | 93 | 2 | 2 | 72 | 6 | -17 | 19 | -6 | 90.93% and > 82% | 13 | -13 | > 30 | -1 | 18 | -7 | 27 | 12 | -5 | % of Parent Related Material, Pig [9]: 93.66% and > 82%; inhibition at 10 µM [10]: 5%; inhibition at 10 µM (Glucocorticoid): 18%; inhibition at 10 µM (Opiate δ1 (OP1, DOP)): 12%; inhibition at 10 µM (Histamine H2): -24%; inhibition at 10 µM (Melatonin MT1): 19%; % inhibition at 10 μM [11]: 7%; inhibition at 10 µM (Muscarinic M3): 13%; inhibition at 10 µM [12]: 8%; IC50 (CYP1A2): > 30 µM; inhibition at 10 µM (Opiate μ (OP3, MOP)): 22%
